How the values were obtained:
SARS-CoV-2 PL^pro = SARS-CoV-2 PL^pro (Severe acute respiratory syndrome coronavirus 2, UniProt P0DTD1); test: biochemical; conditions: for inhibition [%] SARS-CoV-2 PLpro: [E] = 100 nM, [I] = 1 µM, [S] = 10 µM; for inhibition at 1 µM: 0.5 h, read-out: inhibition [%] SARS-CoV-2 PLpro
SARS-CoV-2 M^pro = SARS-CoV-2 M^pro (Severe acute respiratory syndrome coronavirus 2, UniProt P0DTD1); test: biochemical; conditions: for inhibition at 0.1 µM: read-out: inhibition [%] SARS-CoV-2 Mpro, [I] = 100 nM; for inhibition at 1 µM: read-out: inhibition [%] SARS-CoV-2 Mpro, [I] = 1 µM
[1] = molecular target: SARS-CoV-2 nsp14 N7-MTase (Severe acute respiratory syndrome coronavirus 2, UniProt P0DTD1); test: Py-FLINT fluorescence assay of nsp14 N7-MTase; format: biochemical; conditions: for SARS-CoV-2 nsp14 Hill coefficient p: four-parameter dose-response fit, variable Hill slope
Procedure: To determine their IC50 values, we used the previously described fluorescence assay Py-FLINT[42],[67]. To this end, the Py-FLINT probe (1 μM) was incubated with SAM cosubstrate (20 μM), nsp14 enzyme (40 nM), and half-log inhibitor dilutions in 50 mM Tris–HCl pH 7.5 buffer at 30 °C. The reaction progress was monitored in 96-well cells by registering the fluorescence intensity signal with a 1-min time interval. Using the initial reaction course, the values of initial rates V were calculated. To calculate IC50 values from the obtained dependences of initial rates versus inhibitor concentration, we fitted a four-parameter dose–response equation, assuming a variable Hill slope p (Table 3, Fig. S2).
The Py-FLINT probe (1 μM) was incubated with SAM cosubstrate (20 μM), nsp14 (40 nM), and an inhibitor (half-log dilutions logCinh < − 2.5; 2 >). […] Initial rates V were calculated by fitting a linear curve to the first 10 points (10 min). To the obtained dependences V(Cinh) the following four-parameter dose–response equation was fitted:1 V/V0=A1+A2-A1/1+Cinh/IC50^p, where A1 and A2 are the bottom and top asymptotes, respectively; Cinh the inhibitor concentration; p is the Hill coefficient, and V/V0 is the ratio of the initial reaction rate with the inhibitor to that without the inhibitor. For curve fitting and IC50 calculations we used GraphPad Prism software.

Vero E6 cells = test: Cytotoxicity assay (XTT) in Vero E6 cells; format: cell-based; conditions: Vero E6 cells, three days, XTT
Procedure: (§1) Cytotoxicity was evaluated by incubating two-fold serial dilutions of each compound with Vero E6 cells.

SARS-CoV-2 [2] = test: Cytopathic effect (CPE)-based anti-SARS-CoV-2 assay in Vero E6 cells; conditions: read-out: EC50 CPE, three days, XTT
SARS-CoV-2 [3] = test: RNA reduction-based anti-SARS-CoV-2 assay (RT-qPCR) in Vero E6 cells; conditions: read-out: EC50 RNA, two days, RT-qPCR of medium
[4] = Cytotoxicity assay (XTT) in Vero E6 cells; format: cell-based; conditions: African green monkey; Vero E6 cells, three days, XTT; read-out: CC50
Procedure: as §1

A549 human cell line = conditions: cited from earlier work

Row | SMILES | inhibition [%] SARS-CoV-2 PLpro (SARS-CoV-2 PL^pro) | inhibition at 0.1 µM (SARS-CoV-2 M^pro) | EC50 (SARS-CoV-2 [2]) | inhibition at 1 µM (SARS-CoV-2 PL^pro) | further results
1 | O=C(Nc1c(F)cccc1Cl)c1ccccc1[Se][Se]c1ccccc1C(=O)Nc1c(F)cccc1Cl [Compound 34] | 60.2 ± 1.7% | 32 ± 2.1% | 9.3 ± 0.92 µM | – | inhibition at 1 µM (SARS-CoV-2 M^pro): 43.1 ± 3%; IC50 [1]: 2.1 ± 0.58 µM; CC50 (Vero E6 cells): > 50 µM; EC50 (SARS-CoV-2 [3]): 3.4 ± 0.2 µM
2 | Cc1c(Cl)cccc1-n1[se]c2ccccc2c1=O [Compound 21] | – | 70.6 ± 1.4% | – | 58.3 ± 2.4% | melting point: 282 to 283 °C
3 | O=c1c2ccccc2[se]n1-c1ccc([N+](=O)[O-])cc1 [Compound 10] | – | 82.9 ± 1.7% | – | 56.2 ± 4.2% | SARS-CoV-2 nsp14 Hill coefficient p [1]: 1.73 ± 0.35
4 | O=c1c2ccccc2[se]n1-c1ncccc1O [Compound 7, 2-(3-hydroxypyridin-2-yl)-1,2-benzisoselenazol-3(2H)-one] | – | 55.9 ± 4.1% | – | 84.4 ± 2.1% | SARS-CoV-2 nsp14 Hill coefficient p [1]: 4.08 ± 1.33; melting point: 228 to 229 °C (dec.)
5 | CC(=O)c1ccc(-n2[se]c3ccccc3c2=O)cc1 [Compound 12] | 59.0 ± 3.0% | 55.1 ± 2.7% | – | – | –
6 | O=c1c2ccccc2[se]n1-c1cc(Cl)ccc1F [Compound 17, 2-(5-chloro-2-fluorophenyl)-1,2-benzisoselenazol-3(2H)-one] | – | 82.3 ± 2.1% | – | 47.2 ± 1% | SARS-CoV-2 nsp14 Hill coefficient p [1]: 2.15 ± 0.28
7 | O=c1c2ccccc2[se]n1-c1ccc(F)cc1F [Compound 14] | 58.1 ± 3.9% | 64.8% | – | – | –
8 | O=c1c2ccccc2[se]n1-c1ccccc1F [Compound 1] | – | 72.3 ± 2.3% | – | 54.6 ± 2% | –
9 | Cc1ccc(Cl)cc1-n1[se]c2ccccc2c1=O [Compound 20] | – | 69 ± 3.5% | – | 62.6 ± 1.7% | –
10 | O=c1c2ccccc2[se]n1-c1ccc(Cl)cc1F [Compound 15] | 55.7 ± 3.1% | 77.1 ± 2.8% | – | – | –
11 | O=c1c2ccccc2[se]n1-c1ccc(I)cc1 [Compound 11] | – | 71.6 ± 5.6% | – | 48 ± 2.1% | melting point: 203 to 204 °C
12 | O=c1c2ccccc2[se]n1-c1ccccc1Br [Compound 3] | – | 73.3 ± 4.5% | – | 59.2 ± 4.5% | SARS-CoV-2 nsp14 Hill coefficient p [1]: 3.12 ± 0.47
13 | O=C(Nc1ccccc1F)c1ccccc1[Se][Se]c1ccccc1C(=O)Nc1ccccc1F [Compound 25] | 82.1 ± 2.7% | 33 ± 5.5% | 3.1 ± 0.36 µM | – | inhibition at 1 µM (SARS-CoV-2 M^pro): 100%; IC50 [1]: 0.12 ± 0.01 µM; CC50 (Vero E6 cells): ~60 µM; EC50 (SARS-CoV-2 [3]): 1.9 ± 0.15 µM
14 | O=C(Nc1cccc(F)c1)c1ccccc1[Se][Se]c1ccccc1C(=O)Nc1cccc(F)c1 [Compound 27, bis[2-(3-fluorophenylcarbamoyl)]phenyl diselenide] | 90.1 ± 5.4% | 44 ± 4.1% | 0.7 ± 0.13 µM | – | inhibition at 1 µM (SARS-CoV-2 M^pro): 100%; IC50 [1]: 0.18 ± 0.04 µM; CC50 (Vero E6 cells): > 50 µM; EC50 (SARS-CoV-2 [3]): 1.5 ± 0.15 µM
15 | O=c1c2ccccc2[se]n1-c1ccccc1Cl [Compound 2] | – | 66.5 ± 3.4% | – | 56.7 ± 4.1% | –
16 | Cc1ccc(Cl)c(-n2[se]c3ccccc3c2=O)c1 [Compound 19] | 57.6 ± 3.0% | 61.8 ± 0.5% | – | – | –
17 | O=c1c2ccccc2[se]n1-c1cc(Cl)ccc1Cl [Compound 18] | 47.8 ± 0.9% | 72.3 ± 3.1% | – | – | –

Row | SMILES | inhibition [%] SARS-CoV-2 PLpro (SARS-CoV-2 PL^pro) | inhibition at 0.1 µM (SARS-CoV-2 M^pro) | EC50 (SARS-CoV-2 [2]) | inhibition at 1 µM (SARS-CoV-2 PL^pro) | further results
18 | O=C(Nc1ccc(Cl)cc1F)c1ccccc1[Se][Se]c1ccccc1C(=O)Nc1ccc(Cl)cc1F [Compound 30] | 75.1 ± 0.4% | 27.4% | 1.1 ± 0.15 µM | – | inhibition at 1 µM (SARS-CoV-2 M^pro): 49.6 ± 2.7%; IC50 [1]: 11.5 ± 1.4 µM; CC50 (Vero E6 cells): > 50 µM; EC50 (SARS-CoV-2 [3]): 1.9 ± 0.1 µM
19 | O=c1c2ccccc2[se]n1-c1ccccc1C(F)(F)F [Compound 5] | 44.4 ± 2.5% | 62.8 ± 0.7% | – | – | –
20 | Cc1cc(NC(=O)c2ccccc2[Se][Se]c2ccccc2C(=O)Nc2ccc(Cl)c(C)c2)ccc1Cl [Compound 33] | 72.1 ± 3.2% | 48.7 ± 5.4% | 20 ± 1.4 µM | – | inhibition at 1 µM (SARS-CoV-2 M^pro): 92 ± 0.3%; IC50 [1]: 1.06 ± 0.05 µM; CC50 (Vero E6 cells): > 50 µM; EC50 (SARS-CoV-2 [3]): 1.7 ± 0.08 µM
21 | COc1cccc(NC(=O)c2ccccc2[Se][Se]c2ccccc2C(=O)Nc2cccc(OC)c2)c1 [Compound 28] | 81.9 ± 0.8% | 37 ± 4.3% | 7.6 ± 0.71 µM | – | inhibition at 1 µM (SARS-CoV-2 M^pro): 100%; IC50 [1]: 0.58 ± 0.04 µM; CC50 (Vero E6 cells): > 50 µM; EC50 (SARS-CoV-2 [3]): 2.7 ± 0.23 µM
22 | Cc1cc(-n2[se]c3ccccc3c2=O)ccc1Cl [Compound 22] | – | 72.2 ± 0.8% | – | 43.1 ± 2.1% | –
23 | Cc1ccccc1-n1[se]c2ccccc2c1=O [Compound 4] | 55.8 ± 5.2% | 63.4 ± 2.7% | – | – | –
24 | COc1ccc(NC(=O)c2ccccc2[Se][Se]c2ccccc2C(=O)Nc2ccc(OC)cc2OC)c(OC)c1 [Compound 31] | 76.6 ± 2.4% | 50 ± 1% | 7.1 ± 0.84 µM | – | inhibition at 1 µM (SARS-CoV-2 M^pro): 100%; IC50 [1]: 0.91 ± 0.1 µM; CC50 (Vero E6 cells): > 50 µM; EC50 (SARS-CoV-2 [3]): 2.8 ± 0.31 µM
25 | CC(=O)Nc1ccc(-n2[se]c3ccccc3c2=O)cc1 [Compound 13] | – | 62 ± 1% | – | 57.3 ± 1.8% | –
26 | O=c1c2ccccc2[se]n1-c1ccccc1[N+](=O)[O-] [Compound 6] | 46.6 ± 2.3% | 38.5 ± 2.3% | – | – | –
27 | O=C(Nc1ccccc1C(F)(F)F)c1ccccc1[Se][Se]c1ccccc1C(=O)Nc1ccccc1C(F)(F)F [Compound 26] | 61.3 ± 2.2% | 34.5 ± 4.4% | 37 ± 2.4 µM | – | inhibition at 1 µM (SARS-CoV-2 M^pro): 78.1 ± 2.4%; IC50 [1]: 1.82 ± 0.32 µM; CC50 (Vero E6 cells): > 50 µM
28 | Cc1ccc(Cl)cc1NC(=O)c1ccccc1[Se][Se]c1ccccc1C(=O)Nc1cc(Cl)ccc1C [Compound 32] | 72.4 ± 1.7% | 55.4 ± 3.8% | 22 ± 2.5 µM | – | inhibition at 1 µM (SARS-CoV-2 M^pro): 100%; IC50 [1]: 12.1 ± 1.1 µM; CC50 (Vero E6 cells): > 50 µM
29 | CCC(CC)COC(=O)[C@H](C)N[P@](=O)(OC[C@H]1O[C@@](C#N)(c2ccc3c(N)ncnn23)[C@H](O)[C@@H]1O)Oc1ccccc1 [Remdesivir, reference compound] | – | – | 0.1 ± 0.01 µM | – | CC50 at 3 days [4]: > 50 µM; EC50 (SARS-CoV-2 [3]): 0.66 ± 0.06 µM
30 | COc1cccc(-n2[se]c3ccccc3c2=O)c1 [Compound 8] | – | 59.9 ± 4.8% | – | 52.6 ± 1.4% | –
31 | O=c1c2ccccc2[se]n1-c1ccc(C(F)(F)F)cc1 [Compound 9] | – | 71 ± 9.3% | – | 48 ± 3.6% | –
32 | COc1ccc(-n2[se]c3ccccc3c2=O)cc1OC [Compound 23] | – | 60.6 ± 0.4% | – | 58 ± 1.9% | –
33 | O=C(Nc1ccc(C(F)(F)F)cc1)c1ccccc1[Se][Se]c1ccccc1C(=O)Nc1ccc(C(F)(F)F)cc1 [Compound 29] | 61.3 ± 3.4% | 14 ± 2.4% | 29 ± 3.5 µM | – | inhibition at 1 µM (SARS-CoV-2 M^pro): 100%; IC50 [1]: 4.5 ± 1.3 µM; CC50 (Vero E6 cells): > 50 µM
34 | COc1ccc(-n2[se]c3ccccc3c2=O)c(OC)c1 [Compound 16] | – | 59 ± 1.5% | – | 64.3 ± 3.8% | SARS-CoV-2 nsp14 Hill coefficient p [1]: 2.36 ± 0.32; melting point: 238 to 240 °C; toxicity in A549 cells, times lower in comparison with ebselen (A549 human cell line): 10 times
